Experimental findings from patent US5281710A, “Dynemicin analogs: synthesis, methods of preparation and use” (The Scripps Research Institute, priority 1992, dated 1994) are described below.

Molecules are shown by their SMILES. “Also recorded” adds a separate entry of the source. Like-named read-outs stand apart in the source and are kept apart here.

One series concerns φX174 Form I DNA. The series can be described thus: φX174 supercoiled DNA cleavage, agarose gel. It counts as biochemical. To be noted: for DNA cleavage potency: pH 8.5, 1000 and 100 μM. The protocol: The ethereal solution of Compound 40 produced by the LiAlH4 reduction of Compound 21 (39 mg, 0.10 mmol) was evaporated in vacuo to dryness and the residue dissolved in THF (4 mL) to give a 25 mM solution of Compound 40, assuming complete conversion of Compound 21. […]
Thus, a vial containing a 50 micromolar per base pair solution […] of the same buffer solution and 2.0 microliters of a 5.0 millimolar ethanol solution of Compound 40.
[…] A 2.0 microliter portion of glycerol loading buffer solution containing bromothymol blue indicator was added to each vial. A 10 microliter aliquot was then drawn from each. Gel electrophoresis analysis of the aliquots was performed using a 1.0 percent agarose gel with ethidium bromide run at 115 volts for 1 hour. DNA cleavage was indicated by the formation of nicked relaxed circular DNA (form II) or linearized DNA (form III), which was detected by visual inspection of the gel under 310 nanometer ultraviolet light using ethidium bromide.

A further series in a line: Chemical stability. It counts as physicochemical.
For series [1], the system named is NHDF normal human dermal fibroblasts. The series can be described thus: cells. It counts as cell-based. The note with it: for IC50: NHDF, read-out: Range of Average IC50 Values, NHDF. The protocol:
(§1) In addition to the screening already discussed, several of the before-described compounds and chimeras were screened against several or all of a panel of ten to twenty-five cancerous cell lines as target cells and seven "normal" cell preparations. This screening utilized a sulforhodamine B cytotoxidity assay as discussed below.
(§2) IC50 values; i.e., the concentration of Compound required to kill one-half of the treated cells, were then calculated.
NHDF Normal human dermal fibroblasts

Series [2] deals with MOLT-4 (Leukemia) cell line. Briefly: cells. The format is cell-based. The protocol:
as §1, §2

The subject of a further series is SK-Mel-28 melanoma cells. The series can be described thus: Sulforhodamine B cytotoxicity, SK-Mel-28. The format is cell-based. The protocol: as §1, §2
Series [3] concerns MCF-7(ADR) breast carcinoma cells. Briefly: Sulforhodamine B cytotoxicity, MCF-7/ADR. The format is cell-based. The note with it: Homo sapiens, NCI/ADR-RES, Adriamycin resistant. The protocol: as §1, §2
The test system of series [4] is Capan-1 pancreatic carcinoma cells. Briefly: Sulforhodamine B cytotoxicity, Capan-1. The format is cell-based. The protocol:
as §1, §2

Series [5] has as its system HL-60 promyeocytic leukemia cells. The series can be described thus: Sulforhodamine B cytotoxicity, HL-60. It counts as cell-based. The protocol: as §1, §2
Series [6] has as its system Ovcar-3 ovarian carcinoma cells. The series can be described thus: Sulforhodamine B cytotoxicity, Ovcar-3. The note with it: Table 7, Ovcar-3; read-out: Cytotoxicity (IC50). It counts as cell-based. The protocol:
as §1, §2

Series [7] has as its system HT-29 colon carcinoma cells. The series can be described thus: Sulforhodamine B cytotoxicity, HT-29. To be noted: Table 7, HT-29; 4320 min; read-out: Cytotoxicity (IC50). It counts as cell-based. The protocol: as §1, §2
Series [8] has as its system MCF-7 breast carcinoma cells. The series can be described thus: Sulforhodamine B cytotoxicity, MCF-7. The format is cell-based. The note with it: Table 7, MCF-7; 4320 min; read-out: Cytotoxicity (IC50). The protocol:
as §1, §2

In series [9] the test system is UCLA P-3 non-small cell lung carcinoma cells. The series can be described thus: Sulforhodamine B cytotoxicity, UCLA-P3. It counts as cell-based, human. To be noted: Table 7, UCLA-P3; read-out: Cytotoxicity (IC50). The protocol: as §1, §2
UCLA P-3 Dr. D. Morton, University of California, […]

Series [10] deals with H-322 lung carcinoma cells. The series can be described thus: Sulforhodamine B cytotoxicity, H-322. It counts as cell-based. The note with it: Table 7, H-322. The protocol: as §1, §2
Series [11] has as its system P-388 mouse lymphoma cells. Briefly: Sulforhodamine B cytotoxicity, P-388. The format is cell-based. To be noted: Table 7, P-388; read-out: Cytotoxicity (IC50). The protocol: as §1, §2
The subject of series [12] is CHO Chinese hamster ovary cells. Briefly: Sulforhodamine B cytotoxicity, CHO. It counts as cell-based. To be noted: Table 7, CHO; read-out: Cytotoxicity (IC50). The protocol: as §1, §2
The test system of a further series is cancer cell lines. Briefly: cells. It counts as cell-based. To be noted: Average data obtained from 5~10 cell lines; read-out: IC50 (average). The protocol: as §1
SULFORHODAMINE B CYTOTOXICITY ASSAY
a. Stock drug solutions were prepared by dissolving drug in the appropriate solvent (determined during chemical characterization studies) and sterile filtering the drug-solvent solution through a sterile 0.2μ filter unit. An aliquot was taken from each filtered drug solution and the O.D. was measured to determine the drug concentration.
f. Incubate (37° C., 5-10 percent CO2 in humidified incubator) plates for a total of 72 hours. Check plates at 24 hour intervals microscopically for signs of cytotoxicity.
as §2
All other cells or cell lines were obtained from the American Type Culture Collection (ATCC) (all except CHO cells are human or mouse cancer cell lines as described by the ATC).
Tables 1 and 2 herein below provide average IC50 data from five to all ten of the above cancer cells lines for fused ring enediyne compounds disclosed herein. Those tables provide a generic structure and a description of the R group of that generic structure for each compound. Compound numbers as noted hereinbefore are also provided. Table 3 contains data for two fused-ring enediyne compounds (Compounds 47 and 120) as well as data for six chimers. Table 4 contains cancer cell and noraml cell cytotoxicity data for one select fused ring enediyne, Compound 153 against a number of "normal" cell preparations and tumor cell lines. Table 5 contains cancer cell and normal cell cytotoxicity data for another fused ring enediyne, Compound 250 against a similar panel of cells.

The mark [13] stands for this setting: 10 mM, pH 8.5, 48 hours, 37° C.
Where [14] appears, read: Homo sapiens, SK-MEL-28, SK-Mel-28, read-out: IC50.
Setting [15] is: Homo sapiens, CAPAN-1, Capan-1, read-out: IC50.
Where [16] appears, read: Homo sapiens, HL-60, HL-60, read-out: IC50.
Setting [17] is: 5.0 mM, pH 8.5, 36 hours, 37° C.

Take `COC12C#C/C=C\C#CC3N(C(=O)Oc4ccccc4)C4=CC(=O)C=CC45OC15C3(O)CCC2` (stereo not drawn) [Compound 62]: the DNA cleavage entry in the series on φX174 Form I DNA (5 mM, pH 8.0, 24 hours) is listed as “diminished activity against DNA”. Further, the chemical stability entry in “Chemical stability” is recorded as “stable molecules”.
By IC50 is commonly meant the concentration that inhibits the measured activity by half. `CN(Cc1cnc2nc(N)nc(N)c2n1)c1ccc(C(=O)N[C@@H](CCC(=O)O)C(=O)O)cc1` [Methotrexate]: in series [1] (Homo sapiens, control drugs), the IC50 amounted to 50 µM.
Regarding `OC12CCCC3C#Cc4cc5ccccc5cc4C#CC1Nc1ccccc1C32O` (stereo not drawn) [Compound 87b], the DNA cleavage result with φX174 Form I DNA (setting [13]) is given as “converted supercoiled .phi.X174 form I DNA”. In the series “Chemical stability”, the chemical stability result is listed as “stable in the presence of 1,4-cyclohexadiene, but cycloaromatized at elevated temperature (65° C., two hours)”.
As for `O=C(OCCS(=O)(=O)c1ccccc1)N1c2ccccc2[C@]23O[C@@]24CCC[C@@H]3C#C/C=C\C#C[C@@H]14` [(-)-45], the DNA cleavage potency result in the series on φX174 Form I DNA is given as “comparable potencies”. The half-inhibitory concentration (IC50) in [2] (Homo sapiens, MOLT-4, Molt-4 leukemia cell line, read-out: IC50) was found to be 100 nM; in the series on SK-Mel-28 melanoma cells (setting [14]), 6.3 µM; in [3], 1600 nM; in series [4] (setting [15]) it was 1600 nM; in [5] (setting [16]), 780 nM.
Consider `CC(COC(=O)N1c2ccccc2C23OC24CCCC3C#CC=CC#CC14)S(=O)(=O)c1ccccc1` (stereo not drawn) [Compound 428], for which the DNA cleavage entry with φX174 Form I DNA (5.0 mM, pH 8.5 and 9.0, 48 hours, 37° C.) is listed as “greatly reduced in vitro DNA cleaving ability”. Also, the IC50 in [2] (Table 7, Molt-4, read-out: Cytotoxicity (IC50)) is 1000 nM; in the series with SK-Mel-28 melanoma cells (Table 7, SK-Mel-28, read-out: Cytotoxicity (IC50)), less than 100 µM; in [6], 13 µM; in series [7] it was 13 µM; in series [8], less than 100 µM; in [9], 13 µM. The IC50 was found to be 6300 nM in [4] (Table 7, Capan-1, read-out: Cytotoxicity (IC50)); 1600 nM in [5] (Table 7, HL-60, read-out: Cytotoxicity (IC50)); 1600 nM in [11]. In addition, the CC50 is less than 100 µM in series [1] (Table 7, NHDF, read-out: Cytotoxicity (IC50)) and less than 100 µM in series [12]. Also, the “Cytotoxicity (IC50)” value in [10] was “Non-Toxic”.
Turning to `O=C(OCCS(=O)(=O)c1ccccc1)N1c2ccccc2[C@@]23O[C@]24CCC[C@H]3C#C/C=C\C#C[C@H]14` [(+)-45], the DNA cleavage potency result with φX174 Form I DNA was “comparable potencies”. Also, the IC50 in the series on SK-Mel-28 melanoma cells (setting [14]) is 6.3 µM; in [3], 780 nM; in series [4] (setting [15]) it was 390 nM; in series [5] (setting [16]) it was greater than 98 nM.
On to `COC12C#C/C=C\C#CC3NC4=CC(=O)C=CC45OC15C3(O)CCC2` (stereo not drawn) [Compound 58], for which the DNA cleavage result with φX174 Form I DNA (5 mM, pH 8.0, 24 hours) is given as “diminished activity against DNA”. Also, the chemical stability entry in “Chemical stability” is recorded as “stable molecules”.
As for `O=C(Oc1ccccc1)N1c2cc(O)ccc2C23OC24CCCC3(O)C#C/C=C\C#CC14` (stereo not drawn) [Compound 42], the “cleavage of double stranded DNA” value in the series with φX174 Form I DNA (2 mM) is “shown to cause cleavage of double stranded DNA”. For the same molecule, the DNA cleavage entry with φX174 Form I DNA (5 mM, pH 8.0, 24 hours) is given as “significant DNA cleavage”; in the series on φX174 Form I DNA (setting [17]), “significant DNA cleaving action”. For the same molecule, the chemical stability result in the series “Chemical stability” was “led to decomposition”.
For the molecule `OC12CCCC3C#Cc4ccccc4C#CC1Nc1ccccc1C32O` (stereo not drawn) [Compound 76b], in the series with φX174 Form I DNA (setting [13]), the DNA cleavage entry was “converted supercoiled .phi.X174 form I DNA”. Moreover, in “Chemical stability”, the chemical stability result is “cyclized spontaneously at 25 °C in the presence of 1,4-cyclohexadiene”.
As for `O=C(Oc1ccccc1)N1c2cc(OCc3ccccc3[N+](=O)[O-])ccc2C23OC24CCCC3(O)C#C/C=C\C#CC14` (stereo not drawn) [Compound 43], the DNA cleavage entry with φX174 Form I DNA (setting [17]) is “inert”. For the same molecule, the chemical stability result in the series “Chemical stability” is given as “rather labile”.
As to `C1#CC2Nc3ccccc3C34OC23CCCC4C#Cc2ccccc21` (stereo not drawn) [Compound 76a], the chemical stability result in “Chemical stability” was “stable at 25 °C”.
Regarding `O=C1C=CC23OC24C2(O)C#C/C=C\C#CC(N(C(=O)Oc5ccccc5)C3=C1)C4(O)CCC2` (stereo not drawn) [Compound 54], in the series with φX174 Form I DNA, the DNA cleaving activity result was “exhibited DNA cleaving activity”. In addition, the DNA cleavage result in the series on φX174 Form I DNA (5 mM, pH 8.0, 24 hours) is listed as “significant DNA cleavage”; in the series on φX174 Form I DNA (setting [17]) it was “exhibited DNA cleaving capability”. The chemical stability entry in the series “Chemical stability” is on record as “sensitive but stable molecule under neutral conditions”.
As to `N.N.[Cl][Pt][Cl]` [Cis-Platin], the IC50 in [1] (control drugs) came to 50 µM.
On to `C1#CC2Nc3ccccc3C34OC23CCCC4C#C/C=C\1` (stereo not drawn) [Compound 40], for which the DNA cleavage entry in the series with φX174 Form I DNA (5 mM, pH 8.0, 24 hours) is on record as “significant DNA cleavage”; in the series with φX174 Form I DNA (pH 7.4 phosphate, 20 volume percent THF, 24 hours, 100-5000 μM), “cleavage”. Besides, the chemical stability result in “Chemical stability” is “too labile for isolation; also recorded: decomposed at that temperature”.
Consider `CC(=O)O[C@H]1C(=O)[C@@]2(C)[C@H]([C@H](OC(=O)c3ccccc3)[C@]3(O)C[C@H](OC(=O)[C@H](O)[C@@H](NC(=O)c4ccccc4)c4ccccc4)C(C)=C1C3(C)C)[C@]1(OC(C)=O)CO[C@@H]1C[C@@H]2O` [Taxol], for which the half-maximal inhibitory concentration (IC50) in series [1] (Homo sapiens, control drugs) came to 0.01 µM.
`COc1ccc2c(c1)N(C(=O)Oc1ccccc1)[C@H]1C#C/C=C\C#C[C@]3(O)CCC[C@]14O[C@]243` (relative stereo) [Compound 41]: the DNA cleavage result in the series with φX174 Form I DNA (2 mM, pH 5.0) is “also cleaved DNA”. Further, in the series on cancer cell lines, the IC50 amounted to 20 µM. Further, the chemical stability result in the series “Chemical stability” was “reasonable stability under neutral and basic conditions; also recorded: cyclized rapidly under acidic conditions”.
`N[C@@H](Cc1ccc(N(CCCl)CCCl)cc1)C(=O)O` [Melphelan]: the half-inhibitory concentration (IC50) in series [1] (Homo sapiens) was 100 µM.
Consider `COC1=C(C(=O)O)[C@H](C)[C@@]23O[C@]24c2cc(O)c5c(c2N[C@H]3C#C/C=C\C#C[C@H]14)C(=O)c1c(O)ccc(O)c1C5=O` [Dynemicin A], for which the half-maximal inhibitory concentration (IC50) in [1] (Homo sapiens, control drugs) is 0.01 µM.
